Publication PMC12111156, “Nitazoxanide Analogs: Synthesis, In Vitro Giardicidal Activity, and Effects on Giardia lamblia Metabolic Gene Expression” (International Journal of Molecular Sciences, 2025)

Tests used:
[1] = test system: Giardia lamblia trophozoites (strain ATCC 30957) gene expression; experiment: Gene expression in trophozoites by RT-qPCR; format: cell-based; details: IC50 of each compound, 48 h
Experimental: To determine the alterations in the parasite’s metabolism and cellular processes induced by the compounds, the expression levels of various genes encoding metabolic, structural, and oxidative stress response proteins were evaluated. G. lamblia strain ATCC 30957 was grown by following previously established culture parameters.
The culture tube was incubated on ice for 15 min and then centrifuged at 2000 rpm for 6 min to concentrate the cell pellet. Cell counting was performed using the trypan blue method. A 500 µL volume of Trizol ® was added, and it was gently homogenized; then, 60 µL of chloroform was added, and it was homogenized for 10 s with a vortex and incubated on ice for 3 min. Afterward, it was centrifuged at 12,000 rpm for 10 min, the aqueous phase was transferred to a new tube, 200 µL of isopropanol was added, and it was incubated for 3 h on ice. The sample was then centrifuged for 10 min at 12,000 rpm, and the supernatant was discarded. A 600 µL volume of ethanol (70%) was added, homogenized, and centrifuged. In the end, the supernatant was removed, and the sample was centrifuged again to dry the excess alcohol. The pellet was dried. Finally, it was resuspended in 25 µL of sterile MilliQ water. The concentration and purity of the extracted RNA were determined using the NanoDrop® Spectrophotometer ND-1000 (NanoDrop Technologies, Wilmington, DE, USA). […] RNA purity and integrity were confirmed using 0.8% (w/v) agarose gels under denaturing conditions.
The synthesis of cDNA was carried out with […] of purified RNA, and 1 U of […] was added (Thermo Thermo Fisher Scientific, Waltham, MA, USA). First-strand cDNA synthesis was carried out using 1 μg of DNase-treated RNA, combined with a 10 mM dNTP mix, oligo(dT)18 primer, and RevertAid reverse transcriptase (Thermo Scientific) in a final reaction volume of 20 μL. The reaction mixture was incubated at 42 °C for 60 min, followed by heat inactivation at 70 °C for 10 min. The synthesized cDNA was stored at −20 °C until further use. The level of purity and concentration of the cDNA were determined using the NanoDrop® Spectrophotometer ND-1000 (NanoDrop Technologies, Wilmington, DE, USA).
Specific oligonucleotides were designed to determine the expression levels of the gene’s phosphofructokinase, pyruvate kinase, glucose-6-phosphate dehydrogenase::6-phosphogluconolactonase, 6-phosphogluconate dehydrogenase, and transketolase. The design was based on gene sequences available in the National Center for Biotechnology Information (NCBI) database, adhering to the following criteria: an oligonucleotide length of 18–20 bp, a melting temperature (Tm) of 61 °C, a GC content of approximately 40%, and an amplicon size between 80 and 200 bp (Table 4). The oligonucleotides were synthesized by the Sequencing and Synthesis Unit of the Institute of Biotechnology, UNAM.
Additionally, previously reported primers that were used for the gene expression analysis of G. lamblia were also obtained (Table 4). These primers target genes encoding surface structural protein, giardin, actin, pyruvate:ferredoxin oxidoreductase, pyruvate phosphate dikinase, NADH oxidase, triose phosphate isomerase, glyceraldehyde-3-phosphate dehydrogenase, and Aldolase.
Amplification was performed using a StepOne™ Real-Time PCR System and the Fast SYBR® Green Master Mix kit (Applied Biosystems, Foster City, CA, USA) under the following conditions: an initial denaturation at 95 °C for 30 s, followed by 40 cycles of 95 °C for 3 s and 60 °C for 30 s. The melt curve analysis was conducted post-amplification by gradually increasing the temperature from 60 °C to 95 °C. […] Normalization was performed using the geometric mean of cycle threshold (Ct) values, and the relative expression levels of the target genes were calculated using the 2^−ΔΔCt method. Each reaction was performed in five replicates for all analyzed genes and strains. Results are presented as mean values ± standard deviation (SD).

[2] = test system: G. lamblia strain ATCC 30957; experiment: Viability of Giardia lamblia trophozoite culture (trypan blue count); format: cell-based
Experimental: Viability analysis was performed on G. lamblia strain ATCC 30957 grown in TYI-S-33 medium supplemented with 10% fetal bovine serum (FBS) and an antibiotic. Pre-culture was performed in 16 × 150 mm borosilicate tubes with a medium inoculated with 2 × 10^5 trophozoites and incubated at 37 °C for 48 h. For the recovery of the trophozoites, the vial was incubated in ice for 8 min and centrifuged for 6 min at 2000 rpm. The concentrated trophozoites were suspended in 1 mL of phosphate-buffered saline (PBS), and the number of trophozoites was counted by placing a 1:1 volume ratio of cell culture and trypan blue dye (4 g/L); then, a homogeneous drop of the mixture was taken and placed in the Neubauer chamber, and the total cells were counted.
The curves were plotted for concentrations of 0–50 µM of each compound. The assay was performed by placing 1.5 × 10^5 cells in 1.5 mL microcentrifuge tubes with a supplemented medium and different concentrations of each compound (0–50 µM). The negative control was performed under the same conditions without a compound, and the drugs NTZ and MTZ were used as positive controls. The samples were incubated for 48 h at 37 °C. At the end of the incubation, the cell viability count was performed using the trypan blue technique. The viability calculation was performed following the formula nv/(nv + nm), where nv represents the live cells and nm represents the dead cells; the viability value obtained was expressed as a percentage. The IC50 value of each compound was determined using the IC50 Calculator software (https://www.aatbio.com/tools/ic50-calculator).

[3] = test system: G6PD::6PGL enzyme of G. lamblia; details: cited from earlier work
[4] = Cytotoxicity, XTT viability assay, HT-29; details: human, HT-29 cells, CC50 HT-29, 48 h, XTT
Experimental: (§1) The cytotoxicity assay was performed to evaluate the effect of the selected compounds on human cells. Colon cells were used because they are cell lines like those present in the microenvironment where G. lamblia colonizes, which is the small intestine of the host. The assay was performed using the human cell lines Caco-2 (ATCC HTB-37) and HT-29 (ATCC […]). Cell viability was determined using the Cell Proliferation Kit II (XTT, St. Louis, MO, EE. UU.). A cell suspension of 2 × 10^3 cells/mL was prepared in Dulbecco’s modified Eagle’s medium (DMEM) supplemented with 10% inactivated fetal bovine serum and an antibiotic (1% penicillin/streptomycin, 5000 U/mL, in a volume of 100 µL). The suspension was added to a 96-well plate. The plates were incubated for 24 h at 37 °C in a 5% CO2 atmosphere. […] The cells were incubated for 48 h at 37 °C in a 5% CO2 atmosphere. Cell viability was determined using the following steps. The medium in each well was replaced with 100 µL of fresh medium, and 50 µL of XTT labeling mix was added per well. The reaction was incubated for four hours at 37 °C and 5% CO2. After incubation, the absorbance of the samples on the plate was measured at 450 nm. Each compound was assayed in triplicate in three independent experiments. CC50 values (μM) were determined using the nonlinear regression function of GraphPad Prism version 8 for Windows.

HT-29 cells = experiment: Cytotoxicity, XTT viability assay, HT-29
Experimental: as §1

Caco-2 and HT-29 cells = experiment: Cytotoxicity, XTT viability assay, stated for both cell lines; format: cell-based, human; details: 125 µM, 48 h
Experimental: The suspension was added to a 96-well plate. […] Cell viability was determined using the following steps.

[5] = test system: G. lamblia strain resistant to nitazoxanide; experiment: Giardicidal activity in nitazoxanide-resistant strain (trypan blue count); format: cell-based; details: Giardia duodenalis, 48 h, read-out: IC50 G. lamblia (NTZ Resistant)
Experimental: A pre-culture at confluence was used as a starting point, and a concentration–response curve was plotted using an initial compound concentration of 25 μM in a final volume of 1.5 mL of TYI-S-33 medium, followed by serial dilutions of the compound. Each treatment was inoculated with 1.5 × 10^5 trophozoites and incubated for 48 h at 37 °C. At the end of the incubation, the number of trophozoites was determined using the trypan blue assay and by counting in a Neubauer chamber. The viability percentage at each compound concentration was calculated using the negative control as a reference.

[6] = Cytotoxicity, XTT viability assay, Caco-2; details: human
Experimental: as §1

Caco-2 cells = experiment: Cytotoxicity, XTT viability assay, Caco-2; details: read-out: CC50 Caco-2; 48 h, XTT
Experimental: as §1

[7] = ratio of IC50 values, ATCC strain

COc1cccc(C(=O)Nc2ncc([N+](=O)[O-])s2)c1 [FLP-6, 3-Methoxy-N-(5-nitro-1,3-thiazol-2-yl)benzamide]
ACT (actin) gene expression, increase vs control [1]: 2.5 times
G6PD::6PGL gene expression vs control [1]: 35 fold change
GIA (giardin) gene expression, increase vs control [1]: 2.6 times
PFK gene expression vs control [1]: 2.3 fold change
TKT gene expression, decrease vs control [1]: 1.2 times
VSP gene expression, increase vs control [1]: 5.9 times
Decrease of parasite viability ([2]; 25 µM): 100%
Inhibition of growth of G. lamblia parasite culture ([2]; concentration not given): more than 98%
Relative potency compared with MTZ [2, 7]: 12 times
Relative potency compared with NTZ [2, 7]: 15 times
Inhibition of the G6PD::6PGL enzyme (in words) [3]: not inhibitors of the enzyme
CC50 at 48 h [4]: 115 µM
Selectivity index (CC50/IC50) HT-29 (HT-29 cells; CC50 HT-29 / IC50 trophozoite ATCC strain 30957): 411
CC50 (HT-29 cells; read-out: CC50 HT-29, 48 h, XTT): 115 µM
Decrease of cell viability (Caco-2 and HT-29 cells): up to 30%
IC50 [5]: 540 nM
selectivity ratio at 48 h ([6]; Caco-2): 636
CC50 at 48 h ([6]; Caco-2, CC50 Caco-2, 48 h, XTT): 178 µM
CC50 (Caco-2 cells): 178 µM
